Values quoted from earlier work, collected in patent US20230321008A1, “INHIBITORS OF ACID SPHINGOMYELINASE FOR PREVENTING AND TREATING THE COVID-19 DISEASE” (priority 2020, published 2023).

Target: T1, acid sphingomyelinase (ASM) (Homo sapiens, UniProt P17405)
T1 sequence (P17405 47-631): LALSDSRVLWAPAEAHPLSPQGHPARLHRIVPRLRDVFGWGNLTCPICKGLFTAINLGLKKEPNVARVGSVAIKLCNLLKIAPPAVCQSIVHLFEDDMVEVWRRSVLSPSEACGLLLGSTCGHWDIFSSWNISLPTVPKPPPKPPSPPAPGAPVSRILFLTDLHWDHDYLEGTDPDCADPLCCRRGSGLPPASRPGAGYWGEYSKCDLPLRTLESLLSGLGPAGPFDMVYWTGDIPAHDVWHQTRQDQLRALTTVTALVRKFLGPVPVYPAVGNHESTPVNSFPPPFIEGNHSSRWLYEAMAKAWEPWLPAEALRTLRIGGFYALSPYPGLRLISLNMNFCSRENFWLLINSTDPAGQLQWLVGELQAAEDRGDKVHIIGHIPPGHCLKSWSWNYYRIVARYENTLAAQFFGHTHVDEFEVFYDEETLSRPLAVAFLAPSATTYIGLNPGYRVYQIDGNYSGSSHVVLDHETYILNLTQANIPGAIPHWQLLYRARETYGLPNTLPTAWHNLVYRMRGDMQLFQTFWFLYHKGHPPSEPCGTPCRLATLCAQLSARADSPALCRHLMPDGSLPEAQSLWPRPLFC
Details: cited from earlier work

Row | Compound | In vitro inhibition of acid sphingomyelinase (in words)
1 | COc1ccccc1OCCNCC(O)COc1cccc2[nH]c3ccccc3c12 (centres unmarked) [Carvedilol, carvedilol] | in vitro inhibit acid sphingomyelinase with varying degrees
2 | CN(C)CC/C=C1/c2ccccc2Sc2ccc(Cl)cc21 [Chlorprothixene] | in vitro inhibit acid sphingomyelinase with varying degrees
3 | CN(C)CCCN1c2ccccc2CCc2ccc(Cl)cc21 [Clomipramine, clomipramine] | in vitro inhibit acid sphingomyelinase with varying degrees
4 | OCCN1CCN(CC/C=C2/c3ccccc3Sc3ccc(C(F)(F)F)cc32)CC1 [Flupenthixol] | in vitro inhibit acid sphingomyelinase with varying degrees
5 | OCCN1CCN(CCCN2c3ccccc3Sc3ccc(C(F)(F)F)cc32)CC1 [Fluphenazine] | in vitro inhibit acid sphingomyelinase with varying degrees
6 | OC1(c2ccc(Cl)c(C(F)(F)F)c2)CCN(CCCC(c2ccc(F)cc2)c2ccc(F)cc2)CC1 [Penfluridol] | in vitro inhibit acid sphingomyelinase with varying degrees
7 | OCCN1CCN(CCCN2c3ccccc3Sc3ccc(Cl)cc32)CC1 [Perphenazine] | in vitro inhibit acid sphingomyelinase with varying degrees
8 | CN(C)CCCN1c2ccccc2Sc2ccccc21 [Promazine] | in vitro inhibit acid sphingomyelinase with varying degrees
9 | O=C1NCCN1CCN1CCC(c2cn(-c3ccc(F)cc3)c3ccc(Cl)cc23)CC1 [Sertindole] | in vitro inhibit acid sphingomyelinase with varying degrees
10 | CSc1ccc2c(c1)N(CCC1CCCCN1C)c1ccccc1S2 (centres unmarked) [Thioridazin] | in vitro inhibit acid sphingomyelinase with varying degrees
11 | CN1CCN(CCCN2c3ccccc3Sc3ccc(C(F)(F)F)cc32)CC1 [Trifluoperazine] | in vitro inhibit acid sphingomyelinase with varying degrees
12 | CN(C)CCCN1c2ccccc2Sc2ccc(C(F)(F)F)cc21 [Triflupromazine] | in vitro inhibit acid sphingomyelinase with varying degrees
13 | CCN(CCCc1ccccc1)CCCc1ccccc1 [alverine] | in vitro inhibit acid sphingomyelinase with varying degrees
14 | CCN(CC)CCCN(c1ccccc1)C1Cc2ccccc2C1 [aprindine] | in vitro inhibit acid sphingomyelinase with varying degrees
15 | COc1ccc(CCN2CCC(Nc3nc4ccccc4n3Cc3ccc(F)cc3)CC2)cc1 [astemizole] | in vitro inhibit acid sphingomyelinase with varying degrees
16 | CN1[C@@H]2CC[C@H]1C[C@@H](OC(c1ccccc1)c1ccccc1)C2 [benztropine] | in vitro inhibit acid sphingomyelinase with varying degrees
17 | CC(C)COCC(CN(Cc1ccccc1)c1ccccc1)N1CCCC1 (centres unmarked) [bepridil] | in vitro inhibit acid sphingomyelinase with varying degrees
18 | OC(CCN1CCCCC1)(c1ccccc1)C1CC2C=CC1C2 (centres unmarked) [biperidene] | in vitro inhibit acid sphingomyelinase with varying degrees
19 | CCN(CC)CCNC(C(=O)OCCC(C)C)c1ccccc1 (centres unmarked) [camylofin] | in vitro inhibit acid sphingomyelinase with varying degrees
20 | CC(C)/N=c1\cc2n(-c3ccc(Cl)cc3)c3ccccc3nc-2cc1Nc1ccc(Cl)cc1 [clofazimine] | in vitro inhibit acid sphingomyelinase with varying degrees
21 | Clc1ccc(C(OCCN2CCCCC2)c2ccccc2)cc1 (centres unmarked) [cloperastine] | in vitro inhibit acid sphingomyelinase with varying degrees
22 | C[C@H]1[C@H]2CC[C@H]3[C@@H]4CC=C5C[C@@H](N(C)C)CC[C@]5(C)[C@H]4CC[C@]23CN1C [conessine] | in vitro inhibit acid sphingomyelinase with varying degrees
23 | CN(C)CCC=C1c2ccccc2C=Cc2ccccc21 [cyclobenzaprine] | in vitro inhibit acid sphingomyelinase with varying degrees
24 | COc1cc(C(=O)OCCCN2CCCN(CCCOC(=O)c3cc(OC)c(OC)c(OC)c3)CC2)cc(OC)c1OC [dilazep] | in vitro inhibit acid sphingomyelinase with varying degrees

Row | Compound | In vitro inhibition of acid sphingomyelinase (in words)
25 | CN(C)CCC=C1c2ccccc2COc2ccccc21 [doxepin] | in vitro inhibit acid sphingomyelinase with varying degrees
26 | CC[C@H]1CN2CCc3cc(OC)c(OC)cc3[C@@H]2C[C@@H]1C[C@H]1NCCc2cc(OC)c(OC)cc21 [emetine] | in vitro inhibit acid sphingomyelinase with varying degrees
27 | CC(NCCC(c1ccccc1)c1ccccc1)c1ccccc1 (centres unmarked) [fendiline] | in vitro inhibit acid sphingomyelinase with varying degrees
28 | Fc1ccc(C(c2ccc(F)cc2)N2CCN(C/C=C/c3ccccc3)CC2)cc1 [flunarizine] | in vitro inhibit acid sphingomyelinase with varying degrees
29 | CN(CCCN1c2ccccc2CCc2ccccc21)CC(=O)c1ccc(Cl)cc1 [lofepramine] | in vitro inhibit acid sphingomyelinase with varying degrees
30 | CCN(CCCCOC(=O)c1ccc(OC)c(OC)c1)C(C)Cc1ccc(OC)cc1 (centres unmarked) [mebeverine] | in vitro inhibit acid sphingomyelinase with varying degrees
31 | CN1CCc2c(c3ccccc3n2Cc2ccccc2)C1 [mebhydrolin] | in vitro inhibit acid sphingomyelinase with varying degrees
32 | COCC(=O)O[C@]1(CCN(C)CCCc2nc3ccccc3[nH]2)CCc2cc(F)ccc2[C@@H]1C(C)C [mibefradil] | in vitro inhibit acid sphingomyelinase with varying degrees
33 | CN1CCN2c3ncccc3Cc3ccccc3C2C1 (centres unmarked) [mirtazapine] | there are discrepancies whether citalopram, venlafaxine and mirtazapine do have in vitro FIASMA effect
34 | CNCCC=C1c2ccccc2CCc2ccccc21 [nortriptyline] | in vitro inhibit acid sphingomyelinase with varying degrees
35 | C1CCC(C(CC2CCCCN2)C2CCCCC2)CC1 (centres unmarked) [perhexiline] | in vitro inhibit acid sphingomyelinase with varying degrees
36 | CN1CCC(=C2c3ccccc3Sc3ccccc32)CC1 [pimethixene] | in vitro inhibit acid sphingomyelinase with varying degrees
37 | CCN(CC)C(C)CN1c2ccccc2Sc2ccccc21 (centres unmarked) [profenamine] | in vitro inhibit acid sphingomyelinase with varying degrees
38 | CC(CN1c2ccccc2Sc2ccccc21)N(C)C (centres unmarked) [promethazine] | in vitro inhibit acid sphingomyelinase with varying degrees
39 | CNCCCC1c2ccccc2C=Cc2ccccc21 [protriptyline] | in vitro inhibit acid sphingomyelinase with varying degrees
40 | CCN(CC)CCCC(C)Nc1c2ccc(Cl)cc2nc2ccc(OC)cc12 (centres unmarked) [quinacrine] | in vitro inhibit acid sphingomyelinase with varying degrees
41 | C[C@@H]1CC[C@@]2(NC1)O[C@H]1C[C@H]3[C@@H]4CC=C5C[C@@H](O)CC[C@]5(C)[C@H]4CC[C@]3(C)[C@H]1[C@@H]2C [solasodine] | in vitro inhibit acid sphingomyelinase with varying degrees
42 | CCCCCCCCNC(C)C(O)c1ccc(SC(C)C)cc1 (centres unmarked) [suloctidil] | in vitro inhibit acid sphingomyelinase with varying degrees
43 | CC/C(=C(\c1ccccc1)c1ccc(OCCN(C)C)cc1)c1ccccc1 [tamoxifen] | in vitro inhibit acid sphingomyelinase with varying degrees
44 | CC(C)(C)c1ccc(C(O)CCCN2CCC(C(O)(c3ccccc3)c3ccccc3)CC2)cc1 (centres unmarked) [terfenadine] | in vitro inhibit acid sphingomyelinase with varying degrees
45 | C[C@H]1CC[C@]2(NC1)O[C@H]1C[C@H]3[C@@H]4CC[C@H]5C[C@@H](O)CC[C@]5(C)[C@H]4CC[C@]3(C)[C@H]1[C@@H]2C [tomatidine] | in vitro inhibit acid sphingomyelinase with varying degrees
46 | CC(CN(C)C)CN1c2ccccc2CCc2ccccc21 (centres unmarked) [trimipramine] | in vitro inhibit acid sphingomyelinase with varying degrees
47 | COc1ccc(C(CN(C)C)C2(O)CCCCC2)cc1 (centres unmarked) [venlafaxine] | there are discrepancies whether citalopram, venlafaxine and mirtazapine do have in vitro FIASMA effect
